Reference: patent US7335770B2, “Triazine compounds and their analogs, compositions, and methods” (Reddy U5 Therapeutics, Inc., priority 2004, dated 2008)

What was measured:
MCP1 = assay: inhibition of TNF-induced MCP1; type: cell-based; conditions: @ 10 uM concentration; read-out: TNF-induced MCP1, In-vitro % of inhibition
Procedure: The activity of the compounds of the present invention in inhibiting glycated protein- and AGE-induced inflammation can be determined using the assays described herein and in U.S. patent application Ser. No. 10/026,335, which is herein incorporated in its entirety. Such assays comprise measurement of the specific activity of biological components involved in a known cellular response. The assays provide a measurable response in which the activity of the compounds is determined. One assay comprises measurement of the effects of compounds on an inflammatory response by cells to the presence of a stimulating agent. Yet another assay comprises endothelial cells that are stimulated by the addition of a glycated protein, the stimulating agent. The endothelial cells respond by producing specific cytokines. The amount of cytokines produced are determined by measurement protocols known to those skilled in the art. The compounds of the present invention are then added to the assay and the production of cytokines is measured. From the comparison of the assay without the compound with the assay with the compound, the biological effect of the compound can be determined. The compound may have an inhibitory effect, a stimulatory effect, or no effect at all.
The amount and type of cytokine produced can be determined using immunological methods, such as ELISA assays. The methods of the present invention are not limited by the type of assay used to measure the amount of cytokine produced, and any methods known to those skilled in the art and later developed can be used to measure the amount of cytokines produced in response to the stimulating agent and to the compound having unknown activity.
Assays for determining the activity of compounds capable of modulating inflammation include those taught in U.S. patent application Ser. No. 10/026,335 and 09/969,013, which are both expressly incorporated by reference. In general, once the baseline response to the stimulating agent for the production of cytokines by the endothelial cells is established, thus comprising the control levels for the screening assay, the methods comprise addition of compounds of the present invention. The effect of the compound on the baseline response is determined by comparing the amount of cytokine produced in the presence of the stimulating agent and the amount of cytokine produced in the presence of the stimulating agent and the compound of the present invention. In a preferred method, compounds that have inhibitory effects on the inflammation of the cells in the presence of glycated albumin are then used as therapeutic agents. One or more compounds may be added to the screening assay. Combinations or mixtures of compounds can be added. Different amounts and formulations of the compounds are added to determine the effects on the screening assay. The screening assay may also be used to determine stimulatory compounds or compounds that have no effects in the assay.

[1] = system: smooth muscle cells (SMC); assay: anti-proliferation assay (perlecan); type: cell-based; conditions: using the same activity scale used in Table 3
Outline: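 Compounds are added to smooth muscle cells in growth or serum-free medium. The change in proliferation is measured, e.g. by labelled-nucleotide incorporation into DNA, against untreated cells; IC50 values are given as activity bins.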

IL6 = assay: inhibition of TNF-induced IL6 production; type: cell-based; conditions: given as '50% at x μM'; read-out: Inhibition of TNF-induced IL6 production: concentration giving 50% inhibition

SMILES: COc1ccc(Nc2nc(NC3CCCCCC3)nc(OCc3cccc(C)n3)n2)cc1Cl
- inhibition at 10 µM (MCP1): 48%

SMILES: COc1ccc(Nc2nc(NC3CCCCCC3)nc(-c3cc(O)ccc3O)n2)cc1Cl
- inhibition at 10 µM (MCP1): 100%

SMILES: COc1ccc(Nc2nc(NC3CCCCCC3)nc(Oc3ccc(C#CC(C)(C)O)cc3)n2)cc1Cl
- melting point: 132 to 134 °C

SMILES: Cc1ccc(Nc2nc(NC3CCCCCC3)nc(N(C)C3CCN(C)CC3)n2)cc1F
- melting point: 93 °C

SMILES: CN1CCC(N(C)c2nc(Nc3cccc(F)c3)nc(NC3CCCCCC3)n2)CC1
- melting point: 86 °C

SMILES: CCN1CCCC1CNc1nc(Nc2ccc(OCc3ccccc3)c(Cl)c2)nc(NC2CCCCCC2)n1 (centres unmarked)
- melting point: 64 °C

SMILES: COc1ccc(Nc2nc(NNC(=O)CCCCC3SCC4NC(=O)NC43)nc(NC3CCCCCC3)n2)cc1Cl (centres unmarked)
- melting point: 154 °C

SMILES: COc1ccc(Oc2nc(Oc3ccc(OC)c(F)c3)nc(Oc3ccc(OC)c(F)c3)n2)cc1F [2,4,6-Tris-(3-fluoro-4-methoxy-phenoxy)-[1,3,5]triazine]
- activity in anti-proliferation assay (Perlecan), in words [1]: high activity
- melting point: > 210 °C

SMILES: COc1ccc(Nc2nc(NC3CCCCCC3)nc(Oc3ccccc3I)n2)cc1Cl [Example 10, N^2-(3-chloro-4-methoxyphenyl)-N-4-cycloheptyl-6-(2-iodophenoxy)-1,3,5-triazine-4,2-diamine]
- melting point: 206 to 208 °C

SMILES: COc1ccc(Nc2nc(NC3CCCCCC3)nc(Oc3ccccc3C#CC(C)(C)O)n2)cc1Cl [Example 12, 4-{2-[4-(3-chloro-4-methoxyanilino)-6-cycloheptylamino-1,3,5-triazine-2-yl-oxy]-phenyl}-2-methyl-3-butyn-2-ol]
- melting point: 150 to 158 °C

SMILES: COc1ccc(Nc2nc(NC3CCCCCC3)nc(Oc3ccc(C=O)cc3)n2)cc1Cl [Example 15, 4-[4-(3-chloro-4-methoxyanilino)-6-cycloheptylamino-1,3,5-triazine-2-yl-oxy]-benzaldehyde]
- melting point: 218 to 220 °C

SMILES: COc1ccc(Nc2nc(NC3CCCCCC3)nc(Oc3ccc(C(C)=O)cc3Cl)n2)cc1Cl [Example 19, 1-{3-chloro-4-[4-(3-chloro-4-methoxyphenylamino)-6-cycloheptylamino-[1,3,5]triazine-2-yloxy]phenyl}ethanone]
- melting point: 186 to 196 °C

SMILES: COc1ccc(Nc2nc(NC3CCCCCC3)nc(OCC3CCCO3)n2)cc1Cl (centres unmarked) [Example 30, N-(3-Chloro-4-methoxy-phenyl)-N′-cycloheptyl-6-(tetrahydro-furan-2-ylmethoxy)-[1,3,5]triazine-2,4-diamine]
- melting point: 61 °C

SMILES: CCN1CCCC1CNc1nc(NC2CCCCCC2)nc(NC2CCC(O)CC2)n1 (centres unmarked) [Example 31, 4-{4-Cycloheptylamino-6-[(1-ethyl-pyrrolidin-2-ylmethyl)-amino]-[1,3,5]triazin-2-ylamino}-cyclohexanol]
- melting point: 92 °C

SMILES: CCN1CCCC1CNc1nc(Nc2ccc(C)c(F)c2)nc(NC2CCCCCC2)n1 (centres unmarked) [Example 32, N-Cycloheptyl-N′-(1-ethyl-pyrrolidin-2-ylmethyl)-N″-(3-fluoro-4-methyl-phenyl)-[1,3,5]triazine-2,4,6-triamine]
- melting point: 78 °C

SMILES: COc1ccc(Nc2nc(NCC3CCCO3)nc(NC3CCCCCC3)n2)cc1Cl (centres unmarked) [Example 37, N-(3-Chloro-4-methoxy-phenyl)-N′-cycloheptyl-N″-(tetrahydro-furan-2-ylmethyl)-[1,3,5]triazine-2,4,6-triamine]
- melting point: 77 °C

SMILES: COc1ccc(Nc2nc(NCCNC(=O)OC(C)(C)C)nc(NC3CCCCCC3)n2)cc1Cl [Example 39, {2-[4-(3-Chloro-4-methoxy-phenylamino)-6-cycloheptylamino-[1,3,5]triazin-2-ylamino]-ethyl}-carbamic acid tert-butyl ester]
- melting point: 94 °C

SMILES: COc1ccc(Nc2nc(NCCN)nc(NC3CCCCCC3)n2)cc1Cl [Example 40, N-(2-Amino-ethyl)-N′-(3-chloro-4-methoxy-phenyl)-N″-cycloheptyl-[1,3,5]triazine-2,4,6-triamine]
- melting point: 77 °C

SMILES: COc1ccc(Nc2nc(NCCNC(=O)OC(C)(C)C)nc(NC3CCCCCC3)n2)cc1Cl [drawing 602, {2-[4-(3-Chloro-4-meth-oxy-phenylamino)-6-cyclo-heptylamino-[1,3,5]triazin-2-ylamino]-eth-yl}-carbamic acid tert-butyl ester]
- IC50 (IL6): 15 µM

SMILES: COc1ccc(Nc2nc(NCCN)nc(NC3CCCCCC3)n2)cc1Cl [drawing 603, N-(2-Amino-eth-yl)-N′-(3-chloro-4-methoxy-phe-nyl)-N″-cycloheptyl-[1,3,5]triazine-2,4,6-tri-amine]
- IC50 (IL6): 2.7 µM

SMILES: CCN1CCCC1CNc1nc(Nc2ccc(C)c(F)c2)nc(NC2CCCCCC2)n1 (centres unmarked) [drawing 604, N-Cycloheptyl-N′-(1-ethyl-pyrrolidin-2-yl-methyl)-N″-(3-fluoro-4-meth-yl-phenyl)-[1,3,5]tri-azine-2,4,6-triamine]
- IC50 (IL6): 3.3 µM

SMILES: Cc1ccc(Nc2nc(NC3CCCCCC3)nc(N(C)C3CCN(C)CC3)n2)cc1F [drawing 605, N-Cycloheptyl--N′-(3-fluoro-4-methyl-phenyl)-N″-meth-yl-N″-(1-methyl-piperidin-4-yl)-[1,3,5]tri-azine-2,4,6-triamine]
- IC50 (IL6): 3.6 µM

SMILES: CN1CCC(N(C)c2nc(Nc3cccc([N+](=O)[O-])c3)nc(NC3CCCCCC3)n2)CC1 [drawing 606, N-Cycloheptyl-N′-methyl-N′-(1-methyl-piper-idin-4-yl)-N″-(3-nitro-phenyl)-[1,3,5]tri-azine-2,4,6-triamine]
- IC50 (IL6): 3.3 µM

SMILES: CCN1CCCC1CNc1nc(Nc2ccc(OCc3ccccc3)c(Cl)c2)nc(NC2CCCCCC2)n1 (centres unmarked) [drawing 607, N-(4-Benzyloxy-3-chloro-phenyl)-N′-cyclo-heptyl-N″-(1-ethyl-pyrrolidin-2-yl-methyl)-[1,3,5]triazine-2,4,6-triamine]
- IC50 (IL6): 1.1 µM

SMILES: CCc1occc(=O)c1Oc1nc(Nc2ccc(OC)c(Cl)c2)nc(NC2CCCCCC2)n1 [drawing 616]
- inhibition at 10 µM (MCP1): 48%

SMILES: COc1ccc(Nc2nc(NC3CCCCCC3)nc(Oc3ccccc3F)n2)cc1Cl [drawing 618]
- inhibition at 10 µM (MCP1): 10%

SMILES: COc1ccc(Nc2nc(NC3CCCCCC3)nc(Oc3ccc(C(C)=O)cc3)n2)cc1Cl [drawing 624]
- inhibition at 10 µM (MCP1): 25%

SMILES: COc1ccc(Nc2nc(NC3CCCCCC3)nc(Oc3ccc(/C=N\O)cc3)n2)cc1Cl [drawing 625]
- inhibition at 10 µM (MCP1): 100%

SMILES: COc1ccc(Nc2nc(NC3CCCCCC3)nc(Oc3ccc(C(C)=O)cc3Cl)n2)cc1Cl [drawing 626]
- inhibition at 10 µM (MCP1): 82%

SMILES: COc1ccc(Nc2nc(NC3CCCCCC3)nc(Sc3ccccc3)n2)cc1Cl [drawing 628]
- inhibition at 10 µM (MCP1): 10%

SMILES: COc1ccc(Nc2nc(NC3CCCCCC3)nc(Sc3ccc(F)cc3)n2)cc1Cl [drawing 630]
- inhibition at 10 µM (MCP1): 15%

SMILES: COc1cc(OC)c(-c2nc(Nc3ccc(OC)c(Cl)c3)nc(NC3CCCCCC3)n2)c(OC)c1 [drawing 632]
- inhibition at 10 µM (MCP1): 10%

SMILES: COc1ccc(Nc2nc(NC3CCCCCC3)nc(-c3c(O)ccc4ccccc34)n2)cc1Cl [drawing 634]
- inhibition at 10 µM (MCP1): 100%

SMILES: COc1ccc(Nc2nc(NCCNC(=O)OC(C)(C)C)nc(NC3CCCCCC3)n2)cc1Cl [{2-[4-(3-Chloro-4-methoxy-phenylamino)-6-cycloheptylamino-[1,3,5]triazin-2-ylamino]-ethyl}-carbamic acid tert-butyl ester]
- activity in anti-proliferation assay (Perlecan), in words [1]: high activity
